Laboratory results published in US20140121231A1, “PYRANOPYRIDONE INHIBITORS OF TANKYRASE” (Hoffmann-La Roche, Inc., priority 2012, published 2014).
Structures can show the parent of a compound that is named as a salt.

Legend:
Tankyrase 1 (TNKS1) = target: T1, Tankyrase 1 (TNKS1) (Homo sapiens, UniProt O95271); assay: μHTS-TNKS-IWR2 TR-FRET Binding Assay (Example 71), TNKS1
T1 construct: His6-TNKS1, MW=28.2 KDa (construct: 1088-1327, 1266M)
Description: (§1) μHTS-TNKS-IWR2 TR-FRET Binding Assay (10 μL/well in BD1536-well plate, a single point)
(§2) Assay buffer 1a (AB1a) for TNKS dilution: 50 mM Tris, pH 7.4, 100 mM sodium chloride solution, 1 mM magnesium chloride solution, 1 mM DL-dithiothreitol solution, 0.2 mg/mL bovine serum albumin solution, 0.025% NP-40. Assay buffer 1b (AB 1b) for Biotin-IWR2 dilution: 50 mM Tris, pH 7.4, 100 mM sodium chloride solution, 1 mM magnesium chloride solution, 1 mM DL-dithiothreitol solution, 0.2 mg/mL bovine serum albumin solution, 0.05% NP-40 Assay buffer 1c (AB 1c) for compound dilution: 50 mM Tris, pH 7.4, 100 mM sodium chloride solution, 1 mM magnesium chloride solution, 1 mM DL-dithiothreitol solution, 0.2 mg/mL bovine serum albumin solution Assay buffer 2 (AB2) for Eu/APC: 50 mM Tris, pH 7.4, 100 mM sodium chloride solution, 1 mM magnesium chloride solution, 0.2 mg/mL bovine serum albumin solution
(§3) Transfer 3 μL/well of above solution (solution 1,2,3) to an empty assay plate (BD1536-well plate) as follows: TOTAL and cpd wells: Solution 1 (Biotin-IWR2): BLANK wells: Solution 2 (No Biotin-IWR2): POSITIVE CONTROL wells: Solution 3 (Biotin-IWR2XAV939) Transfer 3 μL/well of the above diluted compound solutions or compound dilution buffer to the above assay plate. Add 2 μL/well of 300 nM TNKS stock solution (4) to every well in the above assay plate. Centrifuge the assay plate at 2100 rpm for 2 min. Incubate the assay plate at 26° C. for 30 minutes. Add 2 μL/well 3.5 nMEu/50 nM APC solution (5) to every well in the above assay plate. Centrifuge the assay plate at 2100 rpm for 2 min. Incubate the assay plate at 26° C. for 60 min.

[1] = target: T2, PARP1 (His6-PARP1, full length) (Homo sapiens, UniProt P09874); assay: TR-FRET Binding Assay (Example 71), PARP1; settings: TR-FRET assay of Example 71 with His6-PARP1
T2 construct: His6-PARP1 (full length) can be substituted for His6-TNKS 1
T2 sequence (P09874 whole entry, species assumed): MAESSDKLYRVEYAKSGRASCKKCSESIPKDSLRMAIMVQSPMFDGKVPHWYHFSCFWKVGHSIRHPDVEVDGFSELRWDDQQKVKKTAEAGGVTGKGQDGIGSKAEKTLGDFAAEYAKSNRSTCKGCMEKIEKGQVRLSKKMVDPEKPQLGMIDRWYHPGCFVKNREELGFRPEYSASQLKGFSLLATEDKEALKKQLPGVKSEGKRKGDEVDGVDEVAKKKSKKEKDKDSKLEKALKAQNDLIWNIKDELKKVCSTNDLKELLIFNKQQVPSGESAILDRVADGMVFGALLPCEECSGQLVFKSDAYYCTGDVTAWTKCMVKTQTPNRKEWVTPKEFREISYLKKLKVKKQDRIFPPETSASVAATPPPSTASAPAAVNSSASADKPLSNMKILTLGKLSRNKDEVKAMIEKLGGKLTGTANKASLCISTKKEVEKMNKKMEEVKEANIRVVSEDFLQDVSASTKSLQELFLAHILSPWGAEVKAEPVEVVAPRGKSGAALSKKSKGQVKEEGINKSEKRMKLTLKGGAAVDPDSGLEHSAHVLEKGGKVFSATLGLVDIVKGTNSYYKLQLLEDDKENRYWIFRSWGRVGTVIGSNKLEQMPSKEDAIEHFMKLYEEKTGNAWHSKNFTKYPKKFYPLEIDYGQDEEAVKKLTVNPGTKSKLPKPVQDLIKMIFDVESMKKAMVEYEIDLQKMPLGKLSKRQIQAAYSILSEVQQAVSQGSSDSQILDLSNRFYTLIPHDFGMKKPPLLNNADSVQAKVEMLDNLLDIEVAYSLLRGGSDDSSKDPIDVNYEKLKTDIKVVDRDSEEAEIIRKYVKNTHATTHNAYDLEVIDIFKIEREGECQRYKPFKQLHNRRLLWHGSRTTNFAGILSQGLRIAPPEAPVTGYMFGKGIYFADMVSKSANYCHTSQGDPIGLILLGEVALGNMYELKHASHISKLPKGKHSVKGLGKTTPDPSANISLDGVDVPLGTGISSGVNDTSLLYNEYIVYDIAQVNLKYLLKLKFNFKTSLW
Description: as §1
Tankyrase 1 (TNKS1): 184.3 μM=5.2 mg/mL His6-TNKS1, MW=28.2 KDa (construct: 1088-1327, 1266M) in 20 mM Tris pH 8, 150 mM NaCl, 10% glycerol, and 0.5 mM TCEP. Alternatively, His6-tankyrase 2 (construct: 934-1166) (His6-TNKS2) or His6-PARP1 (full length) can be substituted for His6-TNKS 1.
as §2
Prepare Biotinylated IWR2 stock solution (3.33× stock) for TOTL and compound wells: 200 nM Biotin-IWR2 in 5% DMSO/AB1b buffer
Prepare BLANK well stock solution: 5% DMSO/AB1b buffer Prepare POSITIVE CONTROL well stock solution (3.33× stock): 200 nM XAV939 in 200 nM Biotin-IWR2/5% DMSO/AB1b buffer Prepare TNKS1 stock solution (5× stock): 300 nM TNKS in AB1a buffer. (Alternatively, use TNKS2 or PARP1 stock solutions.) Prepare Eu/APC stock solution (5× stock): 3.5 nM Eu-SA/50 nM APC-His6Ab in AB2 buffer.
Add 25 μL/well 1.5% DMSO/AB1c buffer in each compound well to the compound concentration at 74 μM in 8.8% DMSO/AB1c buffer or in the 2 μL DMSO CONTROL wells (BLANK, TOTAL and POSITIVE wells) in the compound plate. Transfer 3 μL/well of above solution (solution 1,2,3) to an empty assay plate (BD1536-well plate) as follows: TOTAL and cpd wells: Solution 1 (Biotin-IWR2): BLANK wells: Solution 2 (No Biotin-IWR2): POSITIVE CONTROL wells: Solution 3 (Biotin-IWR2XAV939) Transfer 3 μL/well of the above diluted compound solutions or compound dilution buffer to the above assay plate. Add 2 μL/well of 300 nM TNKS stock solution (4) to every well in the above assay plate. Centrifuge the assay plate at 2100 rpm for 2 min. Incubate the assay plate at 26° C. for 30 minutes. Add 2 μL/well 3.5 nMEu/50 nM APC solution (5) to every well in the above assay plate. Centrifuge the assay plate at 2100 rpm for 2 min. Incubate the assay plate at 26° C. for 60 min. Read the assay plate immediately at excitation wavelength of 330 nm and emission wavelength of […] in time resolved fluorescence mode.
. Representative compound data for the PARP1 assay is in TABLE 2 (below) Values are in μM.

tankyrase 2 (His6-TNKS2) = target: T3, tankyrase 2 (His6-TNKS2) (Homo sapiens, UniProt Q9H2K2); assay: μHTS-TNKS-IWR2 TR-FRET Binding Assay (Example 71), TNKS2; settings: footnote 1: Tankyrase 1 and 2 inhibition assay in Example 71 (TR-FRET)
T3 construct: His6-tankyrase 2 (construct: 934-1166) (His6-TNKS2)
T3 sequence (Q9H2K2 934-1166): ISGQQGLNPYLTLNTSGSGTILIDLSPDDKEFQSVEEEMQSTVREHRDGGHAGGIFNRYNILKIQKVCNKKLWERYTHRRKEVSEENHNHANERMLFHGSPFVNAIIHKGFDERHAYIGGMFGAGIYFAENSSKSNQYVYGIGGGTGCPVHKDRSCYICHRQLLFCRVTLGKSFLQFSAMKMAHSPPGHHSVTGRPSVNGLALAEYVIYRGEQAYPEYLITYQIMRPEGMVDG
Description: as §1
Biotin-4-((1S,2R,6S,7R)-3,5-Dioxo-4-aza-tricyclo[5.2.1.0*2,6*]dec-8-en-4-yl)-N-(4-methyl-quinolin-8-yl)-benzamide (Biotin-IWR2): 10 mM Biotin-IWR2 stock in DMSO, stored at −20° C. Positive control: 10 mM 2-(4-Trifluoromethyl-phenyl)-3,5,7,8-tetrahydro-thiopyrano[4,3-d]pyrimidin-4-one (XAV939) in DMSO, stored at −20° C.
as §2, §3

T1 sequence (O95271 1088-1327): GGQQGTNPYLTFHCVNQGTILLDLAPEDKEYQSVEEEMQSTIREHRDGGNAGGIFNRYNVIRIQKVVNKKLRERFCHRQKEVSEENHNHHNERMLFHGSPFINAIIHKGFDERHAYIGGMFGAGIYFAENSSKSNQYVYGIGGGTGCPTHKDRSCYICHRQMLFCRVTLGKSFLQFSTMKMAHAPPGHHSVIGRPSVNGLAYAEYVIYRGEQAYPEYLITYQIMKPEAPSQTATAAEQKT

| SMILES | IC50 (Tankyrase 1 (TNKS1)) [nM] | IC50 [1] [nM] | IC50 (tankyrase 2 (His6-TNKS2)) [nM] |
| --- | --- | --- | --- |
| O=c1[nH]c2c(c3ccccc13)COC(C1CCOC1)C2 (mixture of isomers) [Compound I-59, 2-(Tetrahydro-furan-3-yl)-1,2,4,10-tetrahydro-3-oxa-10-aza-phenanthren-9-one] | 33.6 | 280 | 34.4 |
| CC(C)C1Cc2[nH]c(=O)c3cccnc3c2CO1 (racemic) [Compound I-4, rac-2-Isopropyl-1,2,4,10-tetrahydro-3-oxa-5,10-diaza-phenanthren-9-one] |  | 345 |  |
| CC(C)C1Cc2[nH]c(=O)c3sccc3c2CO1 (racemic) [Compound I-5, rac-7-Isopropyl-5,6,7,9-tetrahydro-8-oxa-3-thia-5-aza-cyclopenta[a]naphthalen-4-one] | 70.3 | 82.9 | 92.1 |
| O=c1[nH]c2c(c3ccccc13)COC(C1CCCC1)C2 (racemic) [Compound I-7, rac-2-Cyclopentyl-1,2,4,10-tetrahydro-3-oxa-10-aza-phenanthren-9-one] | 34.2 | 119 | 43 |
| CC(C)(C)C1Cc2[nH]c(=O)c3ccccc3c2CO1 (racemic) [Compound I-8, rac-2-tert-Butyl-1,2,4,10-tetrahydro-3-oxa-10-aza-phenanthren-9-one] |  | 176 |  |
| CC(C)C1Cc2[nH]c(=O)c3ccoc3c2CO1 (racemic) [Compound I-10, rac-7-Isopropyl-5,6,7,9-tetrahydro-1,8-dioxa-5-aza-cyclopenta[a]naphthalen-4-one] | 93.7 | 80.1 | 231 |
| O=c1[nH]c2c(c3ccccc13)COC(CCc1ccccc1)C2 (racemic) [Compound I-13, rac-2-Phenethyl-1,2,4,10-tetrahydro-3-oxa-10-aza-phenanthren-9-one] | 40.8 | 2670 | 52.1 |
| CC(C)C1Cc2[nH]c(=O)c3ccncc3c2CO1 (racemic) [Compound I-14, rac-7-Isopropyl-5,7,8,9-tetrahydro-6-oxa-3,9-diaza-phenanthren-10-one] | 97.2 | 680 | 204 |
| CC(C)C1Cc2[nH]c(=O)c3cnccc3c2CO1 (racemic) [Compound I-15, rac-7-Isopropyl-5,7,8,9-tetrahydro-6-oxa-2,9-diaza-phenanthren-10-one] | 50.8 | > 50000 | 68.8 |
| Cc1cccc2c(=O)[nH]c3c(c12)COC(C(C)C)C3 (racemic) [Compound I-17, rac-2-Isopropyl-5-methyl-1,2,4,10-tetrahydro-3-oxa-10-aza-phenanthren-9-one] |  | 107 |  |
| COC(=O)c1ccc2c(=O)[nH]c3c(c2c1)COC(C(C)C)C3 (racemic) [Compound I-19, rac-2-Isopropyl-9-oxo-1,4,9,10-tetrahydro-2H-3-oxa-10-aza-phenanthrene-6-carboxylic acid methyl ester] | 84.1 | 73.5 | 386 |
| O=c1[nH]c2c(c3ccccc13)COC(C1CCNCC1)C2 (racemic) [Compound I-22, rac-2-Piperidin-4-yl-1,2,4,10-tetrahydro-3-oxa-10-aza-phenanthren-9-one, trifluoroacetate] | 88.8 | > 50000 | 109 |
| CC(C)C1Cc2[nH]c(=O)c3ccc(C(N)=O)cc3c2CO1 (racemic) [Compound I-23, rac-2-Isopropyl-9-oxo-1,4,9,10-tetrahydro-2H-3-oxa-10-aza-phenanthrene-6-carboxylic acid amide] | 88.6 | 2030 | 243 |
| CC(C)C1Cc2[nH]c(=O)c3ccc(N)cc3c2CO1 (racemic) [Compound I-24, rac-6-Amino-2-isopropyl-1,2,4,10-tetrahydro-3-oxa-10-aza-phenanthren-9-one] | 473 | 63.4 | 1300 |
| Cc1cccc2c(=O)[nH]c3c(c12)CO[C@H](C(C)(C)CO)C3 (single isomer, unassigned) [Compound I-66] |  | 89.7 |  |
| Cc1cccc2c(=O)[nH]c3c(c12)CO[C@@H](C(C)(C)CO)C3 (single isomer, unassigned) [Compound I-67] |  | 70 |  |

These reach a lower IC50 [1]. Values come first.

| IC50 (Tankyrase 1 (TNKS1)) [nM] | IC50 [1] [nM] | IC50 (tankyrase 2 (His6-TNKS2)) [nM] | SMILES |
| --- | --- | --- | --- |
| 25.5 | 61.1 | 30.5 | CC1(C2Cc3[nH]c(=O)c4ccccc4c3CO2)CCCCC1 (racemic) [Compound I-20, rac-2-(1-Methyl-cyclohexyl)-1,2,4,10-tetrahydro-3-oxa-10-aza-phenanthren-9-one] |
| 44 | 58.2 | 73.4 | CC(C)C1Cc2[nH]c(=O)c3cc(Cl)ccc3c2CO1 (racemic) [Compound I-6, rac-7-Chloro-2-isopropyl-1,2,4,10-tetrahydro-3-oxa-10-aza-phenanthren-9-one] |
|  | 53.3 |  | CC(C)(CO)C1Cc2[nH]c(=O)c3ccccc3c2CO1 (racemic) [Compound I-30, rac-2-(2-Hydroxy-1,1-dimethyl-ethyl)-1,2,4,10-tetrahydro-3-oxa-10-aza-phenanthren-9-one] |
|  | 36.5 |  | CS(=O)(=O)N1CCC(C2Cc3[nH]c(=O)c4ccccc4c3CO2)C1 (stereo not drawn) [Compound I-39, 2-(1-Methanesulfonyl-pyrrolidin-3-yl)-1,2,4,10-tetrahydro-3-oxa-10-aza-phenanthren-9-one] |
| 404 | 35.6 | 2700 | CC(C)C1Cc2[nH]c(=O)c3ccc([N+](=O)[O-])cc3c2CO1 (racemic) [Compound I-16, rac-2-Isopropyl-6-nitro-1,2,4,10-tetrahydro-3-oxa-10-aza-phenanthren-9-one] |
|  | 34.3 |  | CC(C)C1Cc2[nH]c(=O)c3ccccc3c2CO1 (racemic) [Compound I-2, rac-2-Isopropyl-1,2,4,10-tetrahydro-3-oxa-10-aza-phenanthren-9-one] |
|  | 32.8 |  | O=C(C1COC1)N1CCC(C2Cc3[nH]c(=O)c4ccccc4c3CO2)CC1 (racemic) [Compound I-52, rac-2-[1-(Oxetane-3-carbonyl)-piperidin-4-yl]-1,2,4,10-tetrahydro-3-oxa-10-aza-phenanthren-9-one] |
| 33.5 | 15.9 | 46.7 | CC(C)(C)OC(=O)N1CCC(C2Cc3[nH]c(=O)c4ccccc4c3CO2)CC1 (racemic) [Compound I-21, rac-4-(9-Oxo-1,4,9,10-tetrahydro-2H-3-oxa-10-aza-phenanthren-2-yl)-piperidine-1-carboxylic acid tert-butyl ester] |
